According to patent US20250195530A1, “POLQ INHIBITORS” (ASTRAZENECA AB, priority 2022, published 2025):

System: DLD-1 BRCA2−/− cells
Test: Homologous recombination synthetic lethal inhibition of proliferation, DLD-1 BRCA2-/- (Cell Titre Glo 3D)
Assay type: cell-based
Conditions: Homo sapiens, DLD-1, first proliferation column (c5), taken as DLD-1 BRCA2-/-; read-out: POLQ PD Prolif Lumin (converted)
Summary of the method: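 DLD-1 BRCA2−/− (3,000 cells/mL) and parental DLD-1 (1,500 cells/mL) cells in phenol red-free RPMI 1640 with 10% FBS were exposed to a 10-point, three-fold compound series from 10 μM to 0.51 nM at 37 °C, 5% CO2. Medium and compound were replenished on day 6. CellTiter-Glo 3D luminescence was read on day 7 (DLD-1) or day 12 (BRCA2−/−), and IC50 was taken as 50% reduction of maximum signal.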

| SMILES | IC50 |
| --- | --- |
| Cc1ccnc(Cn2c(-c3ccc(OCC(=O)NC[C@H](C)F)cc3Cl)nc3c(OC4(C)CC4)ncnc32)c1 [Example T327, (S)-2-(3-chloro-4-(6-(1-methylcyclopropoxy)-9-((4-methylpyridin-2-yl)methyl)-9H-purin-8-yl)phenoxy)-N-(2-fluoropropyl)acetamide] | 0.2 µM |
| Cc1ccnc(Cn2c(-c3ccc(OCC(=O)NCCCF)cc3Cl)nc3c(OC4(C)CC4)ncnc32)c1 [Example T328, 2-(3-chloro-4-(6-(1-methylcyclopropoxy)-9-((4-methylpyridin-2-yl)methyl)-9H-purin-8-yl)phenoxy)-N-(3-fluoropropyl)acetamide] | 0.398 µM |
| COC1(COc2ccc(-c3nc4c(OC5(C)CC5)ncnc4n3Cc3cc(C)ccn3)c(Cl)c2)COC1 [Example T333, 8-(2-chloro-4-((3-methoxyoxetan-3-yl)methoxy)phenyl)-6-(1-methylcyclopropoxy)-9-((4-methylpyridin-2-yl)methyl)-9H-purine] | 0.251 µM |
| Cc1ccnc(Cn2c(-c3ccc(OCCC4(O)COC4)cc3Cl)nc3c(OC4(C)CC4)ncnc32)c1 [Example T334, 3-(2-(3-chloro-4-(6-(1-methylcyclopropoxy)-9-((4-methylpyridin-2-yl)methyl)-9H-purin-8-yl)phenoxy)ethyl)oxetan-3-ol] | 0.251 µM |
| Cc1ccnc(Cn2c(-c3ccc(N4CCNCCC4=O)cc3Cl)nc3c(OC4(C)CC4)ncnc32)c1 [Example T338, 4-(3-chloro-4-(6-(1-methylcyclopropoxy)-9-((4-methylpyridin-2-yl)methyl)-9H-purin-8-yl)phenyl)-1,4-diazepan-5-one] | 2 µM |
| Cc1ccnc(Cn2c(-c3ccc(N4CCNC(=O)CC4)cc3Cl)nc3c(OC4(C)CC4)ncnc32)c1 [Example T339, 1-(3-chloro-4-(6-(1-methylcyclopropoxy)-9-((4-methylpyridin-2-yl)methyl)-9H-purin-8-yl)phenyl)-1,4-diazepan-5-one] | 0.501 µM |
| Cc1ccnc(Cn2c(-c3ccc(N4CC[C@H](C(N)=O)C4)cc3Cl)nc3c(OC4(C)CC4)ncnc32)c1 [Example T340, (S)-1-(3-chloro-4-(6-(1-methylcyclopropoxy)-9-((4-methylpyridin-2-yl)methyl)-9H-purin-8-yl)phenyl)pyrrolidine-3-carboxamide] | 1.26 µM |
| CNC(=O)C1CN(c2ccc(-c3nc4c(OC5(C)CC5)ncnc4n3Cc3cc(C)ccn3)c(Cl)c2)C1 [Example T341, 1-(3-chloro-4-(6-(1-methylcyclopropoxy)-9-((4-methylpyridin-2-yl)methyl)-9H-purin-8-yl)phenyl)-N-methylazetidine-3-carboxamide] | 0.316 µM |
| CNC(=O)N1CC(Oc2ccc(-c3nc4c(OC5(C)CC5)ncnc4n3Cc3cc(C)ccn3)c(Cl)c2)C1 [Example T343, 3-(3-chloro-4-(6-(1-methylcyclopropoxy)-9-((4-methylpyridin-2-yl)methyl)-9H-purin-8-yl)phenoxy)-N-methylazetidine-1-carboxamide] | 0.398 µM |
| Cc1ccnc(Cn2c(-c3ccc(O[C@@H]4CCN(C(N)=O)C4)cc3Cl)nc3c(OC4(C)CC4)ncnc32)c1 [Example T344, (R)-3-(3-chloro-4-(6-(1-methylcyclopropoxy)-9-((4-methylpyridin-2-yl)methyl)-9H-purin-8-yl)phenoxy)pyrrolidine-1-carboxamide] | 2 µM |
| CC1(Oc2ncnc3c2nc(-c2ccc(OCCN4CCNCC4)cc2Cl)n3Cc2ccc(F)cn2)CC1 [Example T350, 8-(2-chloro-4-(2-(piperazin-1-yl)ethoxy)phenyl)-9-((5-fluoropyridin-2-yl)methyl)-6-(1-methylcyclopropoxy)-9H-purine] | 2.51 µM |
| CC1(Oc2ncnc3c2nc(-c2ccc(OCCN4CCNCC4)cc2Cl)n3Cc2ncccc2F)CC1 [Example T351, 8-(2-chloro-4-(2-(piperazin-1-yl)ethoxy)phenyl)-9-((3-fluoropyridin-2-yl)methyl)-6-(1-methylcyclopropoxy)-9H-purine] | 3.16 µM |
| Cc1ccnc(Cn2c(-c3ccc(CCC(=O)N(C)C)cc3Cl)nc3c(OC4(C)CC4)ncnc32)c1 [Example T358, 3-(3-chloro-4-(6-(1-methylcyclopropoxy)-9-((4-methylpyridin-2-yl)methyl)-9H-purin-8-yl)phenyl)-N,N-dimethylpropanamide] | 0.251 µM |
| CC[C@H](CO)NC(=O)c1ccc(-c2nc3c(OC4(C)CC4)ncnc3n2Cc2cc(C)ccn2)c(Cl)c1 [Example T361, (R)-3-chloro-N-(1-hydroxybutan-2-yl)-4-(6-(1-methylcyclopropoxy)-9-((4-methylpyridin-2-yl)methyl)-9H-purin-8-yl)benzamide] | 0.631 µM |
| Cc1ccnc(Cn2c(-c3ccc(C(=O)NC(C)(C)CO)cc3Cl)nc3c(OC4(C)CC4)ncnc32)c1 [Example T362, 3-chloro-N-(1-hydroxy-2-methylpropan-2-yl)-4-(6-(1-methylcyclopropoxy)-9-((4-methylpyridin-2-yl)methyl)-9H-purin-8-yl)benzamide] | 0.631 µM |
| Cc1ccnc(Cn2c(-c3ccc(C(=O)N[C@H](C)CCO)cc3Cl)nc3c(OC4(C)CC4)ncnc32)c1 [Example T364, (R)-3-chloro-N-(4-hydroxybutan-2-yl)-4-(6-(1-methylcyclopropoxy)-9-((4-methylpyridin-2-yl)methyl)-9H-purin-8-yl)benzamide] | 0.794 µM |
| CC[C@@H](O)CNC(=O)c1ccc(-c2nc3c(OC4(C)CC4)ncnc3n2Cc2cc(C)ccn2)c(Cl)c1 [Example T365, (R)-3-chloro-N-(2-hydroxybutyl)-4-(6-(1-methylcyclopropoxy)-9-((4-methylpyridin-2-yl)methyl)-9H-purin-8-yl)benzamide] | 0.794 µM |
| Cc1ccnc(Cn2c(-c3ccc(OCC(=O)NC(C)C)cc3Cl)nc3c(OC4(C)CC4)ncnc32)c1 [Example T366, 2-(3-chloro-4-(6-(1-methylcyclopropoxy)-9-((4-methylpyridin-2-yl)methyl)-9H-purin-8-yl)phenoxy)-N-isopropylacetamide] | 0.2 µM |
| CC(=O)NCCCOc1ccc(-c2nc3c(OC4(C)CC4)ncnc3n2Cc2cc(C)ccn2)c(Cl)c1 [Example T367, N-(3-(3-chloro-4-(6-(1-methylcyclopropoxy)-9-((4-methylpyridin-2-yl)methyl)-9H-purin-8-yl)phenoxy)propyl)acetamide] | 0.316 µM |
| Cc1ccnc(Cn2c(-c3ccc(CCNC(=O)[C@@H](C)O)cc3Cl)nc3c(OC4(C)CC4)ncnc32)c1 [Example T368, (R)-N-(3-chloro-4-(6-(1-methylcyclopropoxy)-9-((4-methylpyridin-2-yl)methyl)-9H-purin-8-yl)phenethyl)-2-hydroxypropanamide] | 0.631 µM |
| Cc1ccnc(Cn2c(-c3ccc(CC(=O)NCCCO)cc3Cl)nc3c(OC4(C)CC4)ncnc32)c1 [Example T370, 2-(3-chloro-4-(6-(1-methylcyclopropoxy)-9-((4-methylpyridin-2-yl)methyl)-9H-purin-8-yl)phenyl)-N-(3-hydroxypropyl)acetamide] | 1 µM |
| Cc1ccnc(Cn2c(-c3ccc(OCC(=O)NC[C@H](C)O)cc3Cl)nc3c(OC4(C)CC4)ncnc32)c1 [Example T372, (S)-2-(3-chloro-4-(6-(1-methylcyclopropoxy)-9-((4-methylpyridin-2-yl)methyl)-9H-purin-8-yl)phenoxy)-N-(2-hydroxypropyl)acetamide] | 0.398 µM |
| Cc1ccnc(Cn2c(-c3ccc(OCC(=O)NCCCO)cc3Cl)nc3c(OC4(C)CC4)ncnc32)c1 [Example T373, 2-(3-chloro-4-(6-(1-methylcyclopropoxy)-9-((4-methylpyridin-2-yl)methyl)-9H-purin-8-yl)phenoxy)-N-(3-hydroxypropyl)acetamide] | 0.316 µM |
| Cc1ccnc(Cn2c(-c3ccc(OCC(=O)N(C)CCO)cc3Cl)nc3c(OC4(C)CC4)ncnc32)c1 [Example T374, 2-(3-chloro-4-(6-(1-methylcyclopropoxy)-9-((4-methylpyridin-2-yl)methyl)-9H-purin-8-yl)phenoxy)-N-(2-hydroxyethyl)-N-methylacetamide] | 1.26 µM |
| Cc1ccnc(Cn2c(-c3ccc(OCCNC(=O)[C@@H](C)O)cc3Cl)nc3c(OC4(C)CC4)ncnc32)c1 [Example T375, (R)-N-(2-(3-chloro-4-(6-(1-methylcyclopropoxy)-9-((4-methylpyridin-2-yl)methyl)-9H-purin-8-yl)phenoxy)ethyl)-2-hydroxypropanamide] | 0.251 µM |
| Cc1ccnc(Cn2c(-c3ccc(OCCN(C)C)cc3Cl)nc3c(OC4(C)CC4)nccc32)c1 [Example T381, 2-(3-chloro-4-(4-(1-methylcyclopropoxy)-1-((4-methylpyridin-2-yl)methyl)-1H-imidazo[4,5-c]pyridin-2-yl)phenoxy)-N,N-dimethylethan-1-amine] | 0.251 µM |
| Cc1ccnc(Cn2c(-c3ccc(OCC(C)(C)CO)cc3Cl)nc3c(OC4(C)CC4)ncnc32)c1 [Example T383, 3-(3-chloro-4-(6-(1-methylcyclopropoxy)-9-((4-methylpyridin-2-yl)methyl)-9H-purin-8-yl)phenoxy)-2,2-dimethylpropan-1-ol] | 0.126 µM |
| Cc1ccnc(Cn2c(-c3ccc(N4CCCNCC4)cc3Cl)nc3c(OC4(C)CC4)ncnc32)c1 [Example T384, 8-(2-chloro-4-(1,4-diazepan-1-yl)phenyl)-6-(1-methylcyclopropoxy)-9-((4-methylpyridin-2-yl)methyl)-9H-purine] | 0.398 µM |
| Cc1cc(OCCCN(C)C)ccc1-c1nc2c(OC3(C)CC3)ncnc2n1Cc1cc(Cl)ccn1 [Example T387, 3-(4-(9-((4-chloropyridin-2-yl)methyl)-6-(1-methylcyclopropoxy)-9H-purin-8-yl)-3-methylphenoxy)-N,N-dimethylpropan-1-amine] | 0.158 µM |
